Where a name gives a salt, the structure may show the parent alone.
Test system: spontaneous climbing behaviour of mice
Experiment: Spontaneous climbing behaviour of mice (method of Martres et al.)
Assay type: in vivo
Conditions: 0.2mg/kg subcutaneous, climbs counted over a 10 minute period commencing 3 minutes after administration, percentage change from control group
Method: It is believed that this inhibitory effect is mediated by stimulation of presynaptic dopaminergic autoreceptors, i.e. receptors whose stimulation results in inhibition of dopamine synthesis and electrical activity of dopamine neurones. Spontaneous climbing behaviour was assessed by the method of M.P. Martres et al., Brain Research, 1977, 136, 319. This involves the monitoring of the frequency of climbing behaviour of mice in inverted food hoppers over a 10 minute period commencing 3 minutes after subcutaneous administration of compound. A climb is defined as the mouse having all four feet off the ground. Experiments are carried out with a minimum of 5 groups of 10 mice, one group acting as control.

Compound | % Inhibition of Spontaneous Climbing at 0.2mg/kg (hydrobromide, 0.2 mg/kg) [%] | % Inhibition of Spontaneous Climbing at 0.2mg/kg [%]
Oc1cccc(C2CCC3CCC2N3Cc2ccccc2)c1 (racemic) [Compound 13, (±)-(2-Exo)-8-Benzyl-2-(3'-hydroxyphenyl)-8-azabicyclo(3.2.1)octane hydrobromide] | 24 | –
Oc1cccc(C2CCC3CCC2N3Cc2ccccc2)c1 (racemic) [Compound 14, (±)-(2-endo)-8-Benzyl-2-(3'-hydroxyphenyl)-8-azabicyclo(3.2.1)octane hydrobromide] | 38 | –
CCCN1C2CCC(c3cccc(O)c3)C1CC2 (racemic) [Compound 16, 2-endo-8-n-propyl-2-(3'-hydroxyphenyl)-8-azabicyclo[3.2.7]octane] | – | 49
Oc1cccc(C2CCC3CCC2N3CCc2ccccc2)c1 (racemic) [Compound 20, 2-endo-8-phenethyl-2-(3'-hydroxyphenyl)-8-azabicyclo[3.2.1] octane] | – | 12

Reference: patent EP0076089A2, “Azabicycloalkane derivatives, process for their preparation, and a pharmaceutical composition containing them” (BEECHAM GROUP PLC, priority 1981, dated 1983)
